The values that follow are results of earlier work, collected in patent US8709476B2, “Compositions of quaternary ammonium compounds containing bioavailability enhancers” (Supernus Pharmaceuticals, Inc., priority 2003, dated 2014).

For this data set the following is noted: in humans; oral dosage form.

As for `O=C(O[C@H]1C[C@H]2CC[C@@H](C1)[N+]21CCCC1)C(O)(c1ccccc1)c1ccccc1` [Trospium chloride], the bioavailability result is on record as “up to 10%”.
